In paper PMC2099433, “The binding site for neohesperidin dihydrochalcone at the human sweet taste receptor” (BMC Structural Biology, 2007):
Changes are numbered by the printed parent chain. Where a SMILES comes first, the peptide text is derived from it.

Tests used:
[1] = target: T1, hTAS1R2 + hTAS1R3 S726A^5.39 (Homo sapiens, UniProt Q7RTX0+Q8TE23, S726A); assay: Calcium response (FLIPR), hTAS1R3 mutant coexpressed with hTAS1R2; format: cell-based; conditions: variant S726A^5.39; for Emax: read-out: maximal signal (% of wt)
T1 construct: expressed in transfected cells; host or cells: HEK293T cells stably expressing G16Gust44
T1 sequence (Q7RTX0 21-852 S726A): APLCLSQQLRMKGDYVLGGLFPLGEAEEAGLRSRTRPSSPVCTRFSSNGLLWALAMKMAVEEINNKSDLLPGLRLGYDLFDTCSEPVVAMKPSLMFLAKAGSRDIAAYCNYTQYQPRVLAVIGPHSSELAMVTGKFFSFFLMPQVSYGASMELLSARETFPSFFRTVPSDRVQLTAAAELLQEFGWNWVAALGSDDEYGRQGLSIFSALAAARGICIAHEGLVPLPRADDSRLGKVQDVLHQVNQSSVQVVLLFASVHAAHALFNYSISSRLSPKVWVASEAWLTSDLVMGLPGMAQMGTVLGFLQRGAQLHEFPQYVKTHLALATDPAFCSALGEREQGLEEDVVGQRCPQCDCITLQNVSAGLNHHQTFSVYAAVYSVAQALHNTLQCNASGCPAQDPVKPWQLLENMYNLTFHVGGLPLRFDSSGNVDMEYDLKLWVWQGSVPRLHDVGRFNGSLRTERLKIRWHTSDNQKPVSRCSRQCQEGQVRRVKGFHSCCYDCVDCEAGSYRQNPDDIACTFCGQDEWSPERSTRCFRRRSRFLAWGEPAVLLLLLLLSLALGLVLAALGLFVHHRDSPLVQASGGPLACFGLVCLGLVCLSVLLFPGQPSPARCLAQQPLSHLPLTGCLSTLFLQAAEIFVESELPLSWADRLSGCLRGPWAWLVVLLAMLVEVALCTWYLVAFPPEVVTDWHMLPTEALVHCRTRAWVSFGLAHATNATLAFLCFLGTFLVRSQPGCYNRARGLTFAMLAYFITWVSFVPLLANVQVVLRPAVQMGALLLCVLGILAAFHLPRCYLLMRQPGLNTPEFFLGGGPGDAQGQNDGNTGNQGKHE
T1 sequence (Q8TE23 20-839): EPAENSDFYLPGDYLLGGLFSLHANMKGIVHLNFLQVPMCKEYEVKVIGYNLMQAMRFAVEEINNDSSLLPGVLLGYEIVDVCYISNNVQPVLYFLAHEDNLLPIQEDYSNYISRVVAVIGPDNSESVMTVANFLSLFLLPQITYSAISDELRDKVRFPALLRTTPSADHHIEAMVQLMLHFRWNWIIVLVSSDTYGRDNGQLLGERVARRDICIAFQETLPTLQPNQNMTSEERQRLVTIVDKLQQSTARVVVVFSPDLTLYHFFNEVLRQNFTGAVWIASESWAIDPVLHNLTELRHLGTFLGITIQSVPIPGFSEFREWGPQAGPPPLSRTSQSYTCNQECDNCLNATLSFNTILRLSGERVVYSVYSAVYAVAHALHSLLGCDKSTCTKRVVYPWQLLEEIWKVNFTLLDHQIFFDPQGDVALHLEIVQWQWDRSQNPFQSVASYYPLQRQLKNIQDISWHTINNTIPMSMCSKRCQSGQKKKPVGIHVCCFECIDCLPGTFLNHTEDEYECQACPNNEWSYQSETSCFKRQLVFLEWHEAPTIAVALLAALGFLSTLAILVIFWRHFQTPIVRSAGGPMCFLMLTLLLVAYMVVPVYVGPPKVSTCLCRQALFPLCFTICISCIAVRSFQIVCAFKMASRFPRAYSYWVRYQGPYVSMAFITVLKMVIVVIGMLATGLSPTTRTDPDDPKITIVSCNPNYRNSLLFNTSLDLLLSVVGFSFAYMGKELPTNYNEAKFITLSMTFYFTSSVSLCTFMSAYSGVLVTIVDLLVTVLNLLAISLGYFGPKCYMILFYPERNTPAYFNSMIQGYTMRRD
Experimental: (§1) The cDNAs for TAS1Rs tagged at the C-terminus with the herpes simplex virus glycoprotein D (HSV) were transiently transfected into HEK293T cells stably expressing the chimeric G-protein subunit G16Gust44 [44] using Lipofectamine 2000 (Invitrogen, Carlsbad, CA) according to the manufacturer's protocol. 3–4 hours after transfection, DMEM was replaced by low-glucose DMEM supplemented with GlutaMAX and 10% dialyzed FBS (Invitrogen, Carlsbad, CA). 24 h post transfection, cells were loaded for 1 h with the calcium sensitive dye Fluo4-AM (2 μg/ml in DMEM, Molecular Probes, Carlsbad, CA). […] We monitored calcium mobilization following receptor stimulation with sweet tastants by an automated fluorometric imaging plate reader (FLIPR, Molecular Devices, Sunnyvale, CA). Compounds used as stimuli (Sigma-Aldrich, St. Louis, MO; Merck, Whitehouse Station, NJ) were dissolved in C1 solution. All data were collected from at least three independent experiments carried out in duplicate. The obtained calcium signals were corrected for the response of mock transfected cells and normalized to the fluorescence of cells prior to the application of the stimulus using ΔF/F = (F-F0)/F0.

[2] = target: T2, hTAS1R2 + hTAS1R3 V621L^2.58 (Homo sapiens, UniProt Q7RTX0+Q8TE23, V621L); assay: as above; format: cell-based; conditions: for receptor activation: mutant V621L^2.58; for EC50: variant V621L^2.58, n.f. = no response to any tested sweetener
T2 construct: expressed in transfected cells; host or cells: HEK293T cells stably expressing G16Gust44
T2 sequence (Q8TE23 20-839): T1 sequence (Q8TE23 20-839)
T2 sequence (Q7RTX0 21-852 V621L): T1 sequence (Q7RTX0 21-852 S726A) with V601L, A706S
Experimental: as §1

| EC50 [1] [µM] | Emax [1] [%] | receptor activation [2] | EC50 [2] | SMILES |
| --- | --- | --- | --- | --- |
| 900 ± 300 | 50 ± 2 | could not be activated | n.f. | COC(=O)[C@H](Cc1ccccc1)NC(=O)[C@@H](N)CC(=O)O [aspartame] (HELM PEPTIDE1{D.F.[CO[*:1]]}$$$$V2.0) |
| – | – | could not be activated | – | CC1=CC(=O)NS(=O)(=O)O1 [acesulfame K] |
| 900 ± 300 | 60 ± 50 | could not be activated | n.f. | COc1ccc(CCC(=O)c2c(O)cc(O[C@@H]3O[C@H](CO)[C@@H](O)[C@H](O)[C@H]3O[C@@H]3O[C@@H](C)[C@H](O)[C@@H](O)[C@H]3O)cc2O)cc1O [NHDC, neohesperidin dihydrochalcone] |
| > 10000 | – | could not be activated | – | O=S(=O)(O)NC1CCCCC1 [cyclamate] |
